Measured values published in patent US11053226B2, “KRAS G12C inhibitors and methods of using the same” (Amgen Inc., priority 2018, dated 2021).
Like-named read-outs stand apart in the source and are kept apart here.

Experiments:
[1] = system: Phosphorylation of ERK1/2 in A549 cells; assay: Phospho-ERK1/2 MSD Assay (A549); type: cell-based; settings: Homo sapiens
[2] = target: GDP-bound KRAS protein (aa 1-169), containing both G12C and C118A amino acid substitutions (Homo sapiens (Human), UniProt P01116, C118A/G12C); assay: Coupled Nucleotide Exchange Assay; type: biochemical
GDP-bound KRAS protein (aa 1-169), containing both G12C and C118A amino acid substitutions, sequence (P01116 other isoform, or with tags, fused parts or gaps G12C/C118A): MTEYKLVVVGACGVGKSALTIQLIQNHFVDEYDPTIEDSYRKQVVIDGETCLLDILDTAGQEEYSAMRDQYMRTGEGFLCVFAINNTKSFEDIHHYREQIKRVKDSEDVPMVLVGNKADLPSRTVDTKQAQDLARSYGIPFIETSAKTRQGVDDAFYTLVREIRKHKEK
Protocol: For compounds in Table 9, the following assay conditions were employed:
Coupled Nucleotide Exchange Assay:
The assay plates were then read on a PerkinElmer EnVision Multilabel Reader, using AlphaScreen® technology, and data were analyzed using a 4-parameter logistic model to calculate IC50 values.

[3] = system: Phosphorylation of ERK1/2 in MIA PaCa-2 cells; assay: Phospho-ERK1/2 MSD Assay; type: cell-based; settings: Homo sapiens, MiaPaCa-2 cells
[4] = A549, 4 h, read-out: pERK IC50 (4 h, A549), 4 h compound treatment
[5] = read-out: Coupled Exchange IC50 (2 h), 2 h compound pre-incubation
[6] = read-out: Coupled Exchange IC50 (20 h), 20 h compound pre-incubation
[7] = MIA PaCa-2, 4 h, read-out: pERK IC50 (4 h, MiaPaCa-2), 4 h compound treatment
[8] = read-out: pERK IC50 (4 h), 4 h compound treatment
[9] = read-out: Coupled Exchange IC50 (5 min), 5 min compound pre-incubation
[10] = MIA PaCa-2, read-out: pERK IC50 (4 h), 4 h compound treatment

Structure (SMILES) | IC50 [1, 4] | IC50 [2, 5] | IC50 [2, 6] | IC50 [3, 7] | IC50 [1, 8] | IC50 [2, 9] | IC50 [3, 10]
C=CC(=O)N1CC(NC(=O)Cn2cc(C(=O)N3CCc4c(Br)cc(C)cc4C3)c3cc(Br)cc(C)c32)C1 [Example 80] | 25.7 µM | 0.33 µM | 0.15 µM | 12.2 µM |  |  | 
C=CC(=O)N1CC(NC(=O)Cn2cc(I)c3cc(Br)ccc32)C1 [Example 85] |  | 3.84 µM | 0.49 µM |  | > 100 µM | 23.6 µM | 14 µM
C=CC(=O)N1CC(NC(=O)Cn2cc(C(=O)N3CCc4c(C)cccc4C3)c3cc(Br)ccc32)C1 [Example 86] | > 100 µM | 0.68 µM | 0.17 µM | 14.1 µM |  |  | 
C=CC(=O)N1CC(NC(=O)Cn2cc(I)c3cc(Br)cc(CC)c32)C1 [Example 87] |  | 4.81 µM | 0.91 µM |  | > 100 µM |  | 14.7 µM
C=CC(=O)N1CC(NC(=O)Cn2c(C(=O)NCc3ccccc3CN(C)C)cc3cc(Br)ccc32)C1 [Example 88] |  | 3.26 µM | 0.72 µM |  | > 100 µM |  | 14.9 µM
C=CC(=O)N1CC(N2CCC(n3cc(I)c4cc(Cl)ccc43)C2=O)C1 (centres unmarked) [Example 90] |  | 4.3 µM | 0.48 µM |  | > 100 µM | 61.1 µM | 16 µM
C=CC(=O)N1CC(NC(=O)Cn2cc(Br)c3cc(Cl)cc(C)c32)C1 [Example 91] |  | 3.18 µM | 0.37 µM |  | > 100 µM |  | 16.3 µM
C=CC(=O)N1CC(NC(=O)Cn2cc(C(=O)N3CCc4c(Br)cc(C)cc4C3)c3cc(Cl)cc(Cl)c32)C1 [Example 92] | > 100 µM | 0.39 µM | 0.18 µM | 16.5 µM |  |  | 
C=CC(=O)N1CC(NC(=O)Cn2cc(C(=O)N3CCc4c(C)cccc4C3)c3cc(Br)cc(C)c32)C1 [Example 94] | > 100 µM | 0.21 µM | 0.13 µM | 16.6 µM |  |  | 
C=CC(=O)N1CC(NC(=O)Cn2cc(I)c3cc(Br)c(C)cc32)C1 [Example 95] |  | 5.79 µM | 1.09 µM |  | > 100 µM |  | 16.7 µM
C=CC(=O)N1CC(NC(=O)Cn2c(C)c(-c3ccccc3N(C)C)c3cc(Cl)ccc32)C1 [Example 98] |  | 1.12 µM |  |  | 13.2 µM |  | 18.2 µM
C=CC(=O)N1CC(NC(=O)Cn2c(C)c(-c3cccc4nc(C)ccc34)c3cc(Cl)ccc32)C1 [Example 101] |  | 1.11 µM |  |  | 56.8 µM |  | 20.3 µM
C=CC(=O)N1CC(NC(=O)Cn2c3c(c4cc(Br)ccc42)CCCCC3)C1 [Example 102] |  | 4.9 µM | 0.9 µM |  | > 100 µM |  | 21.2 µM
C=CC(=O)N1CC(NC(=O)Cn2cc(-c3cccnc3OC(C)C)c3cc(Br)ccc32)C1 [Example 105] |  | 6.45 µM |  |  | 11.3 µM |  | 22 µM
C=CC(=O)N1CC(N(C)C(=O)Cn2cc(C(=O)N3CCc4c(cccc4OC)C3)c3cc(Br)ccc32)C1 [Example 107] | > 100 µM | 0.59 µM | 0.18 µM | 23.1 µM |  |  | 
C=CC(=O)N1CC(NC(=O)Cn2cc(-c3cccc4ccccc34)c3cc(Br)cc(C)c32)C1 [Example 110] |  | 4.39 µM | 1.2 µM |  | 42.1 µM |  | 24.9 µM
C=CC(=O)N1CC(NC(=O)Cn2c(C(=O)OC)c(I)c3cc(Br)ccc32)C1 [Example 111] |  | 1.98 µM | 0.35 µM |  | > 100 µM |  | 25.4 µM
C=CC(=O)N1CC(NC(=O)Cn2cc(-c3ccccc3-c3ccccc3)c3cc(Cl)ccc32)C1 [Example 112] |  | 2.36 µM | 0.71 µM |  | > 100 µM | 3.95 µM | 25.9 µM
C=CC(=O)N1CC(NC(=O)Cn2c(C)c(-c3ccccc3OC(C)C)c3cc(Cl)ccc32)C1 [Example 113] |  | 0.9 µM |  |  | > 100 µM |  | 26.2 µM
C=CC(=O)N1CC(NC(=O)Cn2c(C)c(-c3cccnc3OC(C)C)c3cc(Br)ccc32)C1 [Example 115] |  | 2.78 µM |  |  | > 100 µM |  | 28.1 µM
C=CC(=O)N1CC(NC(=O)Cn2c3ccccc3c3c(Br)cccc32)C1 [Example 117] |  | 2.05 µM | 0.43 µM |  | > 100 µM |  | 29.6 µM
C=CC(=O)N1CC(NC(=O)Cn2cc(-c3ccccc3C(C)C)c3cc(Br)cc(C)c32)C1 [Example 119] |  | 1.71 µM | 0.39 µM |  | > 100 µM |  | 30.6 µM
